In publication PMC6458850, “CXXC5 mediates growth plate senescence and is a target for enhancement of longitudinal bone growth” (Life Science Alliance, 2019):

Biological target: T1, CXXC5–DVL interaction (Homo sapiens, UniProt O14640)
T1 sequence (O14640 251-340 limits assumed): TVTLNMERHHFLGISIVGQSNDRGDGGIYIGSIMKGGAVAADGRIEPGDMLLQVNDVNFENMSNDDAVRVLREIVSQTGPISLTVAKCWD
Assay: In vitro CXXC5–DVL binding assay (FITC-tagged PTD-DBMP on DVL PDZ domain)
Conditions: compound 30 μM; fluorescent intensity normalized to DMSO-treated control
Description: After the addition of 10 μM FITC-tagged PTD-DBMP to each well, each compound in the chemical library or control (DMSO) was treated to the well at a final concentration of 30 μM. The fluorescence intensity was measured using a Fluorstar Optima microplate reader (BGM Lab Technologies, Ortenberg, Germany). The binding values were calculated as a percent ratio of the fluorescent intensity normalized to the DMSO-treated control.

## O=C1Nc2ccccc2/C1=C1/Nc2ccccc2/C1=N\O [Compound 12, indirubin-3′-oxime, reference compound]
  CXXC5-DVL interaction (%): 7.65%
